ChEMBL document CHEMBL1130402, “Effect of stereochemistry on the clearance mechanism of 111In(III)-labeled D- or L-benzyldiethylenetriaminepentaacetic acid” (J Med Chem, 1997)

Assays:
[1] = species: Rattus norvegicus; test: Ratio of biodistribution in liver and blood in normal Wistar rats at 15 min. after injecting the compound; type: ADME, organism-based; conditions: in vivo, 0.25 h
[2] = Compound was tested for % clearance through the faeces in Wistar rats; type: ADME, organism-based; conditions: rat, read-out: Feces
[3] = species: Rattus norvegicus; test: Kidney uptake in normal Wistar rats at 15 min; type: ADME, organism-based; conditions: in vivo, 0.25 h
[4] = species: Rattus norvegicus; test: The biodistribution in blood in normal Wistar rats at 30 min; type: ADME, organism-based; conditions: in vivo, 0.5 h
[5] = species: Rattus norvegicus; test: The biodistribution in bone in normal Wistar rats at 60 min; type: ADME, organism-based, Bone element; conditions: in vivo, 1 h
[6] = species: Rattus norvegicus; test: The biodistribution in liver in normal Wistar rats at 15 min; type: ADME, organism-based; conditions: in vivo, 0.25 h
[7] = species: Rattus norvegicus; test: The biodistribution in blood in normal Wistar rats at 60 min; type: ADME, organism-based; conditions: in vivo, 1 h
[8] = species: Rattus norvegicus; test: Kidney uptake in normal Wistar rats at 5 min; type: ADME, organism-based; conditions: in vivo
[9] = species: Rattus norvegicus; test: Ratio of biodistribution in kidney and blood in normal Wistar rats at 30 min after injecting the compound; type: ADME, organism-based; conditions: in vivo, 0.5 h
[10] = species: Rattus norvegicus; test: Ratio of biodistribution in kidney and blood in normal Wistar rats at 15 min after injecting the compound.; type: ADME, organism-based; conditions: in vivo, 0.25 h
[11] = species: Rattus norvegicus; test: Ratio of biodistribution in liver and blood in normal Wistar rats at 5 min. after injecting the compound; type: ADME, organism-based; conditions: in vivo
[12] = Compound was tested for % clearance through the faeces in jaundice Wistar rats; type: ADME, organism-based; conditions: rat, read-out: Feces
[13] = species: Rattus norvegicus; test: Ratio of biodistribution in kidney and blood in normal Wistar rats at 5 min after injecting the compound.; type: ADME, organism-based; conditions: in vivo
[14] = species: Rattus norvegicus; test: Kidney uptake in normal Wistar rats at 60 min; type: ADME, organism-based; conditions: in vivo, 1 h
[15] = species: Rattus norvegicus; test: The biodistribution in bone in normal Wistar rats at 30 min; type: ADME, organism-based, Bone element; conditions: in vivo, 0.5 h
[16] = Compound was tested for % clearance through the urine in jaundiced (TR-) Wistar rats; type: ADME, organism-based; conditions: rat
[17] = species: Rattus norvegicus; test: Ratio of biodistribution in kidney and blood in normal Wistar rats at 60 min after injecting the compound; type: ADME, organism-based; conditions: in vivo, 1 h
[18] = species: Rattus norvegicus; test: The biodistribution in blood in normal Wistar rats at 5 min; type: ADME, organism-based; conditions: in vivo
[19] = Compound was tested for % clearance through the urine in normal rat; type: ADME, organism-based
[20] = species: Rattus norvegicus; test: The biodistribution in liver in normal Wistar rats at 60 min; type: ADME, organism-based; conditions: in vivo, 1 h
[21] = species: Rattus norvegicus; test: The biodistribution in bone in normal Wistar rats at 5 min; type: ADME, organism-based, Bone element; conditions: in vivo
[22] = species: Rattus norvegicus; test: The biodistribution in blood in normal Wistar rats at 15 min; type: ADME, organism-based; conditions: in vivo, 0.25 h
[23] = species: Rattus norvegicus; test: The biodistribution in liver in normal Wistar rats at 5 min; type: ADME, organism-based; conditions: in vivo
[24] = species: Rattus norvegicus; test: The biodistribution in liver in normal Wistar rats at 30 min; type: ADME, organism-based; conditions: in vivo, 0.5 h
[25] = species: Rattus norvegicus; test: Ratio of biodistribution in liver and blood in normal Wistar rats at 30 min. after injecting the compound; type: ADME, organism-based; conditions: in vivo, 0.5 h
[26] = species: Rattus norvegicus; test: Ratio of biodistribution in liver and blood in normal Wistar rats at 60 min. after injecting the compound; type: ADME, organism-based; conditions: in vivo, 1 h
[27] = species: Rattus norvegicus; test: Kidney uptake in normal Wistar rats at 30 min; type: ADME, organism-based; conditions: in vivo, 0.5 h
[28] = species: Rattus norvegicus; test: The biodistribution in bone in normal Wistar rats at 15 min; type: ADME, organism-based, Bone element; conditions: in vivo, 0.25 h
[29] = species: Rattus norvegicus; test: Ratio of biodistribution in kidney and blood in normal Wistar rats at 5 min after injecting the compound; type: ADME, organism-based; conditions: in vivo
[30] = Compound was tested for % clearance through the faeces in jaundiced (TR-) Wistar rats; type: ADME, organism-based; conditions: rat, read-out: Feces
[31] = species: Rattus norvegicus; test: Ratio of biodistribution in kidney and blood in normal Wistar rats at 15 min after injecting the compound; type: ADME, organism-based; conditions: in vivo, 0.25 h
[32] = Compound was tested for % clearance through the faeces in normal Wistar rats; type: ADME, organism-based; conditions: rat, read-out: Feces

ID/organ [1] | ID/organ [3] [%] | ID/organ [4] [%] | ID/organ [5] [%] | ID/organ [6] [%] | ID/organ [7] [%] | ID/organ [8] [%] | ID/organ [9] | ID/organ [11] | ID/organ [14] [%] | ID/organ [15] [%] | dose excreted [16] [%] | ID/organ [17] | ID/organ [18] [%] | dose excreted [19] [%] | ID/organ [20] [%] | ID/organ [21] [%] | ID/organ [22] [%] | ID/organ [23] [%] | ID/organ [24] [%] | SMILES | further results
1.69 | 1.63 | 2.03 | 2.4 | 7.63 | 0.71 | 3.45 | 0.46 | 1.46 | 0.57 | 2.31 | 80.4 | 0.82 | 10.7 | 51.9 | 1.1 | 3.28 | 4.67 | 15.6 | 3.15 | O=C(O)CN(CCN(CCN(CC(=O)O)CC(=O)O)[C@H](Cc1ccccc1)C(=O)O)CC(=O)O | dose excreted [2]: 42.8%; ID/organ [10]: 0.36; dose excreted [12]: 10.6%; ID/organ [13]: 0.33; ID/organ [25]: 1.55; ID/organ [26]: 1.6; ID/organ [27]: 0.92%; ID/organ [28]: 3.81%
1.1 | 3.04 | 2.66 | 2.43 | 6.84 | 0.86 | 4.74 | 0.74 | 1.04 | 1.1 | 2.17 | 85 | 1.3 | 12.7 | 62 | 0.82 | 4.59 | 6.36 | 13.2 | 2.37 | O=C(O)CN(CCN(CCN(CC(=O)O)CC(=O)O)[C@@H](Cc1ccccc1)C(=O)O)CC(=O)O | ID/organ [29]: 0.37; dose excreted [30]: 3.3%; ID/organ [31]: 0.48; dose excreted [32]: 29.2%; ID/organ [25]: 0.9; ID/organ [26]: 0.99; ID/organ [27]: 1.96%; ID/organ [28]: 3.76%
